Our source for the Ki values is ChEMBL document CHEMBL1136160, “Design, synthesis and evaluation of novel azasugar-based MMP/ADAM inhibitors” (Bioorg Med Chem Lett, 2003).

Assay [1] deals with Stromelysin-1 (Homo sapiens, UniProt P08254). The experiment in a line: Inhibition of recombinant human matrix metalloprotease-3.
In assay [2] the target is Matrix metalloproteinase-9 (Homo sapiens, UniProt P14780). The assay can be described thus: Inhibition of recombinant human matrix metalloprotease-9 (gelatinase B).
Chain of Matrix metalloproteinase-9 (P14780 whole entry): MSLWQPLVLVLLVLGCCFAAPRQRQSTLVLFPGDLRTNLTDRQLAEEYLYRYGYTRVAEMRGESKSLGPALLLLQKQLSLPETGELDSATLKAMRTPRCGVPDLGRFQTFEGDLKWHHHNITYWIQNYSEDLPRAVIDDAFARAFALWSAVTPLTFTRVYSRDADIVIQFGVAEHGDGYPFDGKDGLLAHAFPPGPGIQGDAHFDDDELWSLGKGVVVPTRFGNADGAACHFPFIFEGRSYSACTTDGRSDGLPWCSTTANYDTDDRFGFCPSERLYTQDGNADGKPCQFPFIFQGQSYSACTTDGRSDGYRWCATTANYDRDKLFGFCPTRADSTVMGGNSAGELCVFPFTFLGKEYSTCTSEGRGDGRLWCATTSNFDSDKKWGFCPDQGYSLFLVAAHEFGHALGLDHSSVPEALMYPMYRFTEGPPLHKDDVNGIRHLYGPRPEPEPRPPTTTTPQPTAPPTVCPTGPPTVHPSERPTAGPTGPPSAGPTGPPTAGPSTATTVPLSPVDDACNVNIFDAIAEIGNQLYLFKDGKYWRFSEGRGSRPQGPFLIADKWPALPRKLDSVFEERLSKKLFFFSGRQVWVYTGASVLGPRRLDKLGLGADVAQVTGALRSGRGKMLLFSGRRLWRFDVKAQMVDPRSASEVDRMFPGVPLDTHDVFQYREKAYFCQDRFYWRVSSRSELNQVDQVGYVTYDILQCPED
Assay [3] has as its target T1, Interstitial collagenase (Homo sapiens, UniProt P03956).
T1 sequence (P03956 whole entry): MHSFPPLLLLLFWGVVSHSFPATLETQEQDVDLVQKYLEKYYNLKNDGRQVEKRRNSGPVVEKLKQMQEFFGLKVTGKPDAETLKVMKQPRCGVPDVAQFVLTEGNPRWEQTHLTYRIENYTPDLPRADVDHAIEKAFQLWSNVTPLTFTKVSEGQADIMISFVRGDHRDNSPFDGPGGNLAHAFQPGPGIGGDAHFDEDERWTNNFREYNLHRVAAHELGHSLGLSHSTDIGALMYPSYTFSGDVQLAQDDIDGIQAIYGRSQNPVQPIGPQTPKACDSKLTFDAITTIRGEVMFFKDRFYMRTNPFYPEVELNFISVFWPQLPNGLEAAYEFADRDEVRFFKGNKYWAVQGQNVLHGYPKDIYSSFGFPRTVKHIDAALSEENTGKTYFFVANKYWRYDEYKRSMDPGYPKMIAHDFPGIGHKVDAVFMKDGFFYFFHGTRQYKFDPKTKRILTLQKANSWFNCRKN
The assay can be described thus: Inhibition of Recombinant human matrix metalloprotease-1.

Assay [4] has as its target Disintegrin and metalloproteinase domain-containing protein 17 (Homo sapiens, UniProt P78536). The assay can be described thus: Inhibition of recombinant human tumor necrosis factor-alpha converting enzyme.
The target of assay [5] is T1, Interstitial collagenase. The assay can be described thus: Inhibition of recombinant human matrix metalloprotease-1.

Structures are written as SMILES. pKi: −log10 of the molar value.

Chain of Stromelysin-1 (P08254 whole entry): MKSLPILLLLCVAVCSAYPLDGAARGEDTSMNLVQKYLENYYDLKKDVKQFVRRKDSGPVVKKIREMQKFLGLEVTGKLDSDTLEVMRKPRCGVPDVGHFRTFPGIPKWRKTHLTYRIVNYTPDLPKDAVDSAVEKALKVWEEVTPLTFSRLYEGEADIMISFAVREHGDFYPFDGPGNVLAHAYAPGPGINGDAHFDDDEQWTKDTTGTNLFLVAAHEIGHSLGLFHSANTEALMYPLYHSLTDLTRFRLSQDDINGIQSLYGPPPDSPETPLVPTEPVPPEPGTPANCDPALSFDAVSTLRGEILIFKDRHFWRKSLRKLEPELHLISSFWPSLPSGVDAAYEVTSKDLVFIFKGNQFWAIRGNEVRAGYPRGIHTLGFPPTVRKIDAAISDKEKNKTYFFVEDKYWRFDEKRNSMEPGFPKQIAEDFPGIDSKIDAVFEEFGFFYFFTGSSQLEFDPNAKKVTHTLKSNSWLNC
Chain of Disintegrin and metalloproteinase domain-containing protein 17 (P78536 whole entry, the tested form may be a part): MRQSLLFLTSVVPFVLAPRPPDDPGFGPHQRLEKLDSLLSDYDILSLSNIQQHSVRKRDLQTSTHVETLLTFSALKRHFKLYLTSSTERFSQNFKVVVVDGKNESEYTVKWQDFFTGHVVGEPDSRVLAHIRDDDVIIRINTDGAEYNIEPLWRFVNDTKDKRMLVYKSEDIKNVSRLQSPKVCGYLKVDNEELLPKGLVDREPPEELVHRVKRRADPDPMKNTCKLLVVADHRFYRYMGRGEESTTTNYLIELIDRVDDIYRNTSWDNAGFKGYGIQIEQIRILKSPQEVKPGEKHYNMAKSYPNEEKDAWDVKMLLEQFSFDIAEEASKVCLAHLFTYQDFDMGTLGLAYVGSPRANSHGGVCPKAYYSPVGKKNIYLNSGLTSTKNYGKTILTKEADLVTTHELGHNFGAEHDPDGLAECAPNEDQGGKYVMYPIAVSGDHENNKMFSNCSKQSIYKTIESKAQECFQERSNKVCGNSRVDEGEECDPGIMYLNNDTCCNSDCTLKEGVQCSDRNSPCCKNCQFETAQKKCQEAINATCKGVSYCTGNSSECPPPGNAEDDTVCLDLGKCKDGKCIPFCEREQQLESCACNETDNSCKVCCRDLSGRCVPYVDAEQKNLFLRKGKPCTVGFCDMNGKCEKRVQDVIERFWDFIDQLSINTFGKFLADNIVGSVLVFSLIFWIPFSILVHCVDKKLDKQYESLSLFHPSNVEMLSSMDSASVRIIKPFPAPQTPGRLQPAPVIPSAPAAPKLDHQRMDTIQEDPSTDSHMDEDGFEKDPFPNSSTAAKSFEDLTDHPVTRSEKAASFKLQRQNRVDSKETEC

With `COc1ccc(S(=O)(=O)N2C[C@@H]3OC(C)(C)O[C@H]3[C@@H](OC(C)=O)[C@@H]2C(=O)NO)cc1`, the pKi (in general, the negative decadic logarithm of the Ki, by convention in mol/L) in assay [1] was 7.30; in assay [2], 7.33; in assay [3] it was 6.79; in assay [4], 7.68.

In the case of `COc1ccc(S(=O)(=O)N2C[C@@H]3OC(C)(C)O[C@H]3[C@@H](O)[C@@H]2C(=O)NO)cc1`, the pKi is 8.43 in assay [1], 7.68 in assay [2], 7.59 in assay [3] and 7.40 in assay [4].

Turning to `COc1ccc(S(=O)(=O)N2C[C@H](O)[C@H]3OC(C)(C)O[C@H]3[C@@H]2C(=O)NO)cc1`, the pKi in assay [5] is 6.26; in assay [1], 7.36; in assay [2], 6.51; in assay [4] it was 7.66.
